Values quoted from earlier work in patent publication US20060240013A1, “Diagnostics and therapeutics for diseases associated with bile acid g-protein-coupled receptor 37 (bg37)” (BAYER HEALTHCARE AG, priority 2002, published 2006).

Target: T1, BG37 receptor (Homo sapiens, UniProt Q8TDU6)
T1 sequence (Q8TDU6 1-330): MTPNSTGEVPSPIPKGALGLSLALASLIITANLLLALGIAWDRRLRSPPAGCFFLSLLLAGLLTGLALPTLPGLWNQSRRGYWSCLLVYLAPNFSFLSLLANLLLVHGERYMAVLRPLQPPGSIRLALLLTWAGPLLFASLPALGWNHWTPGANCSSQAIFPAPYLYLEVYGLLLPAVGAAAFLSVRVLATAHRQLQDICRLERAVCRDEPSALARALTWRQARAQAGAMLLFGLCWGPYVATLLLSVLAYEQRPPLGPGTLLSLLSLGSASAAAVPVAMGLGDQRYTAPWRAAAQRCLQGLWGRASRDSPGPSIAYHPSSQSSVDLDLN
Conditions: intracellular cAMP levels modulated through BG37 receptor; Maruyama et al. (2002)

Row | SMILES | rank order of potency of bile acids
1 | C[C@H](CCC(=O)O)[C@H]1CC[C@H]2[C@@H]3[C@H](O)C[C@@H]4C[C@H](O)CC[C@]4(C)[C@H]3CC[C@]12C [chenodeoxycholic acid] | lithocholic acid>deoxycholic acid>chenodeoxycholic acid>cholic acid
2 | C[C@H](CCC(=O)O)[C@H]1CC[C@H]2[C@@H]3[C@H](O)C[C@@H]4C[C@H](O)CC[C@]4(C)[C@H]3C[C@H](O)[C@]12C [cholic acid] | lithocholic acid>deoxycholic acid>chenodeoxycholic acid>cholic acid
